Patent US10822348B2, “Inhibitors of Bruton's tyrosine kinase and methods of their use” (JANSSEN PHARMACEUTICA NV, priority 2015, dated 2020)

Target: unphosphorylated-BTK kinase domain (UP-BTK), GST-tagged human BTK (389-659aa) (Homo sapiens (Human), UniProt Q06187)
Assay: BTK kinase Lanthascreen binding assay
Procedure: BTK Kinase Lanthascreen Binding Assay:
A BTK kinase lanthascreen binding assay monitors compound binding to unphosphorylated-BTK kinase domain (UP-BTK), by competing with a fluorescent labeled tracer. […] Data were analyzed using Xlfit™ version 5.3 from ID Business Solutions (Guildford), Microsoft Excel add-in. pIC50 refers to the negative log of the IC50 in molar.

[1] = negative log of the IC50 in molar, 60 minutes incubation with 50 nM Tracer 236
[2] = unphosphorylated-BTK kinase domain, 60 minutes incubation, pIC50 = negative log of the IC50 in molar
[3] = negative log of the IC50 in molar, 60 minutes incubation, 50 nM Tracer 236

unphosphorylated-BTK kinase domain (UP-BTK), GST-tagged human BTK (389-659aa), sequence (Q06187 389-659): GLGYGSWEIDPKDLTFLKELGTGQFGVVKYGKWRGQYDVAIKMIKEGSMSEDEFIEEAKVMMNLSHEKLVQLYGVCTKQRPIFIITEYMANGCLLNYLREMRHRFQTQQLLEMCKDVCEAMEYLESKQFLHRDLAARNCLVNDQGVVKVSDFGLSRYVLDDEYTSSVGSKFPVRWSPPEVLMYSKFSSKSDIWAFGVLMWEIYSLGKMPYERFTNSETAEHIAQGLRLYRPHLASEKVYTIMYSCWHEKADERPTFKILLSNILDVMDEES

Row | SMILES | BTK_I_binding pIC50 [1] | BTK_I_binding pIC50 [2] | further results
1 | C=CC(=O)N[C@H]1COC[C@H]1NC(=O)c1sc2nccc3c2c1NC(=O)N3c1cnc(Oc2ccccc2)cc1C (stereo in doubt) [Example 745, N-((3*S,4*R)-4-Acrylamidotetrahydrofuran-3-yl)-5-(*S)-(4-methyl-6-phenoxypyridin-3-yl)-4-oxo-4,5-dihydro-3H-1-thia-3,5,8-triazaacenaphthylene-2-carboxamide] | 8.1 |  | 
2 | C=CC(=O)N1CCC[C@@H](NC(=O)c2sc3nccc4c3c2NC(=O)N4c2cnc(Oc3ccccc3)cc2C)C1 (single isomer, unassigned) [Example 691, (R)—N-(1-Acryloylpiperidin-3-yl)-5-(*R)-(4-methyl-6-phenoxypyridin-3-yl)-4-oxo-4,5-dihydro-3H-1-thia-3,5,8-triazaacenaphthylene-2-carboxamide] | 6.0 |  | 
3 | C=CC(=O)N1C[C@H](NC(=O)c2sc3nccc4c3c2NC(=O)N4c2ccc(Oc3ccccc3)cc2C)C[C@@H](OC)C1 (relative stereo) [Example 481, N-((3R,5R)-1-Acryloyl-5-methoxypiperidin-3-yl)-5-(*S)-(2-methyl-4-phenoxyphenyl)-4-oxo-4,5-dihydro-3H-1-thia-3,5,8-triazaacenaphthylene-2-carboxamide] |  | 8.2 | 
4 | Cc1cc(Oc2ccccc2)ccc1N1C(=O)Nc2c(C(=O)N[C@H]3CCCOC3)sc3nccc1c23 (single isomer, unassigned) [Example 267, (S)-5-(*R)-(2-Methyl-4-phenoxyphenyl)-4-oxo-N-(tetrahydro-2H-pyran-3-yl)-4,5-dihydro-3H-1-thia-3,5,8-triazaacenaphthylene-2-carboxamide] |  |  | BTK_I_binding pIC50 [3]: 6.3
5 | Cc1cc(Oc2ccccc2)ccc1N1C(=O)Nc2c(C(=O)N[C@@H]3CCCN(C(=O)CN(C)C)C3)sc3nccc1c23 (single isomer, unassigned) [Example 56, (R)—N-(1-(2-(Dimethylamino)acetyl)piperidin-3-yl)-5-(*S)-(2-methyl-4-phenoxyphenyl)-4-oxo-4,5-dihydro-3H-1-thia-3,5,8-triazaacenaphthylene-2-carboxamide] |  |  | BTK_I_binding pIC50 [3]: 7.4
6 | CCC(=O)N1CCC[C@@H](NC(=O)c2sc3nccc4c3c2NC(=O)N4c2cnc(CC(C)C)cc2C)C1 (single isomer, unassigned) [Example 765, (R)-5-(*S)-(6-Isobutyl-4-methylpyridin-3-yl)-4-oxo-N-(1-propionylpiperidin-3-yl)-4,5-dihydro-3H-1-thia-3,5,8-triazaacenaphthylene-2-carboxamide] | 6.5 |  | 
7 | Cc1cc(Oc2ccccc2)ccc1N1C(=O)Nc2c(C(=O)N[C@@H]3CCCOC3)sc3nccc1c23 (single isomer, unassigned) [Example 96, (R)-5-(*S)-(2-Methyl-4-phenoxyphenyl)-4-oxo-N-(tetrahydro-2H-pyran-3-yl)-4,5-dihydro-3H-1-thia-3,5,8-triazaacenaphthylene-2-carboxamide] |  |  | BTK_I_binding pIC50 [3]: 7.8
8 | C=CC(=O)N1CCC[C@@H](NC(=O)c2sc3nccc4c3c2NC(=O)N4c2ccc(OC3CCOCC3)cc2C)C1 (single isomer, unassigned) [Example 742, (R)—N-(1-Acryloylpiperidin-3-yl)-5-(*S)-(2-methyl-4-((tetrahydro-2H-pyran-4-yl)oxy)phenyl)-4-oxo-4,5-dihydro-3H-1-thia-3,5,8-triazaacenaphthylene-2-carboxamide] | 5.8 |  | 
9 | Cc1cc(OC2CCOCC2)ccc1N1C(=O)Nc2c(C(=O)N[C@@H]3CCCN(C)C3)sc3nccc1c23 (single isomer, unassigned) [Example 343, (R)-5-(*R)-(2-Methyl-4-((tetrahydro-2H-pyran-4-yl)oxy)phenyl)-N-(1-methylpiperidin-3-yl)-4-oxo-4,5-dihydro-3H-1-thia-3,5,8-triazaacenaphthylene-2-carboxamide] |  | 5.3 | 
10 | C=CC(=O)N1CCC[C@@H](NC(=O)c2sc3nccc4c3c2NC(=O)N4c2ccc(OC(C)C)cc2C)C1 (single isomer, unassigned) [Example 417, (R)—N-(1-Acryloylpiperidin-3-yl)-5-(*S)-(4-isopropoxy-2-methylphenyl)-4-oxo-4,5-dihydro-3H-1-thia-3,5,8-triazaacenaphthylene-2-carboxamide] |  | 5.9 | 
11 | Cc1cc(OC(C)C)ncc1N1C(=O)Nc2c(C(=O)N[C@@H]3CCNC3)sc3nccc1c23 (single isomer, unassigned) [Example 958, (R)-5-(*S)-(6-Isopropoxy-4-methylpyridin-3-yl)-4-oxo-N-(pyrrolidin-3-yl)-4,5-dihydro-3H-1-thia-3,5,8-triazaacenaphthylene-2-carboxamide] |  |  | BTK_I_binding pIC50 (unphosphorylated-BTK kinase domain, Lanthascreen, 60 minutes incubation, pIC50 = negative log of IC50 in molar): <6
12 | Cc1cc(Oc2ccccc2)ccc1N1C(=O)Nc2c(C(=O)N[C@@H]3CCCN(C)C3)sc3nccc1c23 (single isomer, unassigned) [Example 180, (R)-5-(*R)-(2-Methyl-4-phenoxyphenyl)-N-(1-methylpiperidin-3-yl)-4-oxo-4,5-dihydro-3H-1-thia-3,5,8-triazaacenaphthylene-2-carboxamide] |  |  | BTK_I_binding pIC50 [3]: 6.0
13 | Cc1cc(Oc2ccccc2)ccc1N1C(=O)Nc2c(C(=O)N[C@@H]3CCCNC3)sc3nccc1c23 (single isomer, unassigned) [Example 300, (R)-5-(*R)-(2-methyl-4-phenoxyphenyl)-4-oxo-N-(piperidin-3-yl)-4,5-dihydro-3H-1-thia-3,5,8-triazaacenaphthylene-2-carboxamide] |  | 6.0 | 
14 | C=CC(=O)N1CCC[C@@H](NC(=O)c2sc3nccc4c3c2NC(=O)N4c2ccc(OC3CCOCC3)cc2C)C1 (single isomer, unassigned) [Example 675, (R)—N-(1-Acryloylpiperidin-3-yl)-5-(*R)-(2-methyl-4-((tetrahydro-2H-pyran-4-yl)oxy)phenyl)-4-oxo-4,5-dihydro-3H-1-thia-3,5,8-triazaacenaphthylene-2-carboxamide] | 7.2 |  | 
15 | C=CC(=O)N1C[C@H](O)C[C@@H](NC(=O)c2sc3nccc4c3c2NC(=O)N4c2ccc(Oc3ccccc3)cc2C)C1 (relative stereo) [Example 483, N-((3R,5R)-1-Acryloyl-5-hydroxypiperidin-3-yl)-5-(*S)-(2-methyl-4-phenoxyphenyl)-4-oxo-4,5-dihydro-3H-1-thia-3,5,8-triazaacenaphthylene-2-carboxamide] |  | 8.4 | 
16 | Cc1cc(Oc2ccccc2)ccc1N1C(=O)Nc2c(C(=O)N[C@@H]3CCCN(C(=O)/C=C/CN)C3)sc3nccc1c23 (single isomer, unassigned) [Example 511, (R,E)-N-(1-(4-Aminobut-2-enoyl)piperidin-3-yl)-5-(*S)-(2-methyl-4-phenoxyphenyl)-4-oxo-4,5-dihydro-3H-1-thia-3,5,8-triazaacenaphthylene-2-carboxamide] |  | 7.8 | 
17 | Cc1cc(Oc2ccccc2)ccc1N1C(=O)Nc2c(C(=O)N[C@H]3CCCN(C)C3)sc3nccc1c23 (single isomer, unassigned) [Example 249, (S)-5-(*S)-(2-Methyl-4-phenoxyphenyl)-N-(1-methylpiperidin-3-yl)-4-oxo-4,5-dihydro-3H-1-thia-3,5,8-triazaacenaphthylene-2-carboxamide] |  |  | BTK_I_binding pIC50 [3]: 6.6
18 | C=CC(=O)N1CC[C@@H](NC(=O)c2sc3nccc4c3c2NC(=O)N4c2cnc(CC(C)C)cc2C)C1 (single isomer, unassigned) [Example 747, (R)—N-(1-Acryloylpyrrolidin-3-yl)-5-(*S)-(6-isobutyl-4-methylpyridin-3-yl)-4-oxo-4,5-dihydro-3H-1-thia-3,5,8-triazaacenaphthylene-2-carboxamide] | 7.5 |  | 
19 | CNC/C=C/C(=O)N1CCC[C@@H](NC(=O)c2sc3nccc4c3c2NC(=O)N4c2ccc(Oc3ccccc3)cc2C)C1 (single isomer, unassigned) [Example 38, (R,E)-5-(*S)-(2-Methyl-4-phenoxyphenyl)-N-(1-(4-(methylamino)but-2-enoyl)piperidin-3-yl)-4-oxo-4,5-dihydro-3H-1-thia-3,5,8-triazaacenaphthylene-2-carboxamide] |  |  | BTK_I_binding pIC50 [3]: 7.3
20 | C=CC(=O)N1CC[C@@H](NC(=O)c2sc3nccc4c3c2NC(=O)N4c2cnc(CC(C)C)cc2C)C1 (single isomer, unassigned) [Example 756, (R)—N-(1-Acryloylpyrrolidin-3-yl)-5-(*R)-(6-isobutyl-4-methylpyridin-3-yl)-4-oxo-4,5-dihydro-3H-1-thia-3,5,8-triazaacenaphthylene-2-carboxamide] | <6 |  | 
21 | Cc1cc(Oc2ccccc2)ccc1N1C(=O)Nc2c(C(=O)N[C@@H]3CCCN(C(=O)/C=C/CN)C3)sc3nccc1c23 (single isomer, unassigned) [Example 367, (R,E)-N-(1-(4-Aminobut-2-enoyl)piperidin-3-yl)-5-(*R)-(2-methyl-4-phenoxyphenyl)-4-oxo-4,5-dihydro-3H-1-thia-3,5,8-triazaacenaphthylene-2-carboxamide] |  | 6.2 | 
22 | C=CC(=O)N1CCC[C@@H](NC(=O)c2sc3nccc4c3c2NC(=O)N4c2ccc(OC(F)(F)F)cc2C)C1 (single isomer, unassigned) [Example 505, (R)—N-(1-Acryloylpiperidin-3-yl)-5-(*S)-(2-methyl-4-(trifluoromethoxy)phenyl)-4-oxo-4,5-dihydro-3H-1-thia-3,5,8-triazaacenaphthylene-2-carboxamide] |  | 7.8 | 
